{
  "source": "paper PMC8179515",
  "about": "(Chemical Science, 2021)",
  "key": {"Aβ1-42 oligomers (Aβo)": {"target": "Aβ1-42 oligomers (Aβo) (Homo sapiens, UniProt P05067)", "sequence (P05067 672-713)": "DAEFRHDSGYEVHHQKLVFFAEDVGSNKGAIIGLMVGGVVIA", "type": "binding"}, "albumin": {"system": "albumin", "details": "cited from earlier work"}, "monomeric amyloid-β": {"system": "monomeric amyloid-β", "details": "cited from earlier work"}},
  "data": [
    {"compound": "C=C(c1ccc(C(=O)O)cc1)c1cc2c(cc1C)C(C)(C)CCC2(C)C", "note": "[Bexarotene]", "values": [
      {"measurement": "Highest% STD", "setting": "Aβ1-42 oligomers (Aβo)", "value": 14.60, "unit": "%"}
    ]},
    {"compound": "CC(C(=O)O)c1ccc(-c2ccccc2)c(F)c1", "note": "(stereo not drawn) [flurbiprofen]", "values": [
      {"measurement": "bound to albumin", "setting": "albumin", "value": "> 99", "unit": "%"}
    ]},
    {"compound": "solanezumab", "values": [
      {"measurement": "affinity for central epitope KLVFFAED", "setting": "monomeric amyloid-β", "value": "picomolar affinity"}
    ]}
  ]
}
